Results reported in patent US10047107B2, “Small molecule analogs of E4orf1” (BOARD OF SUPERVISORS OF LOUISIANA STATE UNIVERSITY AND …, priority 2014, dated 2018).

These compounds were tested on 3T3-L1 pre-adipocytes (assay: Glucose uptake (2-deoxy glucose uptake) by 3T3-L1 pre-adipocytes). Settings: 5 μM compound, 24 hours exposure, 3T3-L1 pre-adipocytes, basal conditions, without serum starvation, 2-DG uptake.
Format: cell-based
Method: Glucose uptake by 3T3-L1 cells exposed to compounds 1-11 was determined at 5 μM concentration. Cells were exposed to compounds 1-11 for 24 hours and exposure to DMSO was used as the control group. 2-Deoxy glucose (2-DG) uptake was determined using the analog compounds without serum starving the cells prior to determining glucose uptake. Glucose uptake in 3T3-L1 pre-adipocytes was determined by exposing cells to compounds 1-11 for 24 hours without serum starvation. P values presented in the Table indicate statistical significance (p<0.05).

With `N#CC(Nc1ccc([B-](F)(F)F)cc1)c1ccc(O)cc1.[K+]` (centres unmarked) [Example 2, Potassium (4-((cyano(4-hydroxyphenyl)methyl)amino)phenyl)trifluoroborate] the “Percent increase in glucose uptake in comparison to DMSO treated Control” value was “No increase”.

Going from `COc1cc(C(C#N)Nc2ccc([B-](F)(F)F)cc2)cc(OC)c1OC.[K+]` (centres unmarked) [Example 8, Potassium (4-((cyano(3,4,5-trimethoxyphenyl)methyl)amino)phenyl) trifluoroborate] to `N#CC(Nc1ccc([B-](F)(F)F)cc1)c1ccc([B-](F)(F)F)cc1.[K+].[K+]` (centres unmarked) [Example 11], the “Percent increase in glucose uptake in comparison to DMSO treated Control” value rises from 43% to 53%.

Same assay, conditions: Mus musculus, 3T3-L1, 24 h, read-out: Percent increase in glucose uptake in comparison to DMSO treated Control

First: N#CC(Nc1ccc([B-](F)(F)F)cc1)c1cccnc1 (centres unmarked) [Example 9, Potassium (4-((cyano(pyridin-3-yl)methyl)amino)phenyl)trifluoroborate]
Second: N#CC(Nc1ccc(O)cc1)c1ccc([B-](F)(F)F)cc1 (centres unmarked) [Example 10, Potassium (4-(cyano((4-hydroxyphenyl)amino)methyl)phenyl)trifluoroborate]
The activation at 5 µM of the first is higher: 54% for the first, 31% for the second.

Same assay, conditions: Mus musculus; 5 μM compound, 24 hours exposure, 3T3-L1 pre-adipocytes, basal conditions, without serum starvation, 2-DG uptake; read-out: Percent increase in glucose uptake in comparison to DMSO treated Control

First: CC1(C)OB(c2ccc(NC(C#N)c3ccc(O)cc3)cc2)OC1(C)C (centres unmarked) [Example 1, 2-(4-hydroxyphenyl)-2-((4-(4,4,5,5-tetramethyl-1,3,2-dioxaborolan-2-yl)phenyl)amino)acetonitrile]
Second: CC1(C)OB(c2ccc(C(C#N)Nc3ccc(O)cc3)cc2)OC1(C)C (centres unmarked) [Example 5, 2-((4-hydroxyphenyl)amino)-2-(4-(4,4,5,5-tetramethyl-1,3,2-dioxaborolan-2-yl)phenyl)acetonitrile]
The activation at 5 µM of the first is lower: 24% for the first, 73% for the second.

First: CC1(C)OB(c2ccc(NC(C#N)c3cccnc3)cc2)OC1(C)C (centres unmarked) [Example 3, 2-(pyridin-3-yl)-2-((4-(4,4,5,5-tetramethyl-1,3,2-dioxaborolan-2-yl)phenyl)amino)acetonitrile]
Second: CC1(C)OB(c2ccc(NC(C#N)c3ccc(B4OC(C)(C)C(C)(C)O4)cc3)cc2)OC1(C)C (centres unmarked) [Example 6, 2-(4-(4,4,5,5-tetramethyl-1,3,2-dioxaborolan-2-yl)phenyl)-2-((4-(4,4,5,5-tetramethyl-1,3,2-dioxaborolan-2-yl)phenyl)amino)acetonitrile]
The activation at 5 µM of the first is lower: 9% for the first, 17% for the second.

Going from `CC1=C(C(C#N)Nc2ccc(B3OC(C)(C)C(C)(C)O3)cc2)C(C)(C)CCC1` (centres unmarked) [Example 4, 2-((4-(4,4,5,5-tetramethyl-1,3,2-dioxaborolan-2-yl)phenyl)amino)-2-(2,6,6-trimethylcyclohex-1-en-1-yl)acetonitrile] to `COc1cc(C(C#N)Nc2ccc(B3OC(C)(C)C(C)(C)O3)cc2)cc(OC)c1OC` (centres unmarked) [Example 7, 2-((4-(4,4,5,5-tetramethyl-1,3,2-dioxaborolan-2-yl)phenyl)amino)-2-(3,4,5-trimethoxyphenyl)acetonitrile], the activation at 5 µM rises from 33% to 41%.
